In US8361740B2, “Peptide standards” (King's College London, priority 2007, dated 2013):
Non-standard residues stand in square brackets, D forms with d. No end group written: not given here. K∗ = stable isotope labelled lysine

System: trypsin
Test: Tryptic digestion of peptide standards, released T6 peptide (LVNEVTEFAK) measured by LC-MSMS (MRM)
Type: biochemical
Conditions: for IS Peak Area (counts): LVNEVTEFAK* signal, internal std + digested peptide 8; for Analyte Peak Area (counts): trypsin 37° C. 30 min
Excerpt: The first experiment was test the hypothesis that the LVNEVTEFAKT (SEQ ID NO:7) peptide is cleaved to LVNEVTEFAK (SEQ ID NO:10) by trypsin as efficiently as the longer peptides. Using LVNEVTEFAK* (SEQ ID NO:10) as the internal standard peptides (1-5, and 8) were digested using standard protocol. […] This implies that any internal standard peptide where cysteine is the N-terminal amino acid will require the next amino acid in addition to be effective.
Experiment to Determine Number of Amino Acids Required Following Trypsin Digest Site for Digestion.
Assay 50 μl peptide 1-6 & 8 (blank was deionised water)+50 μl internal std Add 10 μl acetonitrile & 10 μl 1% formic acid, vortex mix, and stand for 5 min Add 6 μl […] ammonium bicarbonate & 5 μl trypsin (5 mg/l), vortex mix, and pulse centrifuge (6 sec) Incubate at 37° C. for 30 min & add 500 μl HPLC solvent (acetonitrile:water 1:1 with 0.025% formic acid) Vortex mix and transfer to 96-deep well polypropylene plate Sample volume, 5 μl; flow rate, 500 μl/min Chromatography—teicoplanin guard column MSMS parameters—generic peptide ionisation and doubly charged ion fragmentation T6 doubly charged ion m/z 575.4 and internal std m/z 579.4 Product ions (m/z): 937.4, 823.4, 694.4—internal std (m/z): 945.4, 831.4, 702.4 (150 ms/MRM) Results

LVNEVTEFAK*T (LVNEVTEFA[K∗]T) [peptide 8]
signal for LVNEVTEFAK after tryptic digestion (3 different MRMs, LVNEVTEFAK* as internal standard): no signal | LVNEVTEFAK* signal after tryptic digestion (LVNEVTEFAK* as internal standard): increased by the expected amount | Internal standard area Ratio (IS + peptide 8 / Mean (Blank, 1-6)) (T6 694): 1.87 | IS Peak Area (counts) (T6 694 transition): 238000 counts | Internal standard area Ratio (IS + peptide 8 / Mean (Blank, 1-6)) (T6 823): 1.80 | IS Peak Area (counts) (T6 823 transition): 83000 counts | Internal standard area Ratio (IS + peptide 8 / Mean (Blank, 1-6)) (T6 937): 1.91 | IS Peak Area (counts) (T6 937 transition): 253000 counts | Analyte Peak Area (counts) (analyte T6 694 (m/z 575.4/694.4)): 149 counts | Area Ratio (analyte T6 694 / internal std LVNEVTEFAK*): 0.00062 | Analyte Peak Area (counts) (analyte T6 823 (m/z 575.4/823.4)): 62 counts | Area Ratio (analyte T6 823 / internal std LVNEVTEFAK*): 0.00074 | Analyte Peak Area (counts) (analyte T6 937 (m/z 575.4/937.4)): 147 counts | Area Ratio (analyte T6 937 / internal std LVNEVTEFAK*): 0.00058 | recovery after tryptic digestion (within the limits of the experiment): full recovery
